Results from paper PMC3946342, “Evaluating Molecular Mechanism of Hypotensive Peptides Interactions with Renin and Angiotensin Converting Enzyme” (PLoS ONE, 2014).
Where “and” joins values, the source holds several entries; their conditions need not be identical. Identical values can stand only once. Residues, ends and D or L forms follow the SMILES beside them.

How the values were obtained:
renin [1] = target: T1, renin (Homo sapiens, UniProt P00797); test: Kinetics of renin inhibition (Lineweaver-Burk); assay type: biochemical; details: for Mode of renin inhibition: double reciprocal plot; for K′m / V′max / Ki: renin; for Ki: secondary plot of Lineweaver-Burk slopes, read-out: Ki (enzyme-inhibitor dissociation constant)
T1 construct: purchased Cayman Chemicals 10006217
T1 sequence (P00797 67-406): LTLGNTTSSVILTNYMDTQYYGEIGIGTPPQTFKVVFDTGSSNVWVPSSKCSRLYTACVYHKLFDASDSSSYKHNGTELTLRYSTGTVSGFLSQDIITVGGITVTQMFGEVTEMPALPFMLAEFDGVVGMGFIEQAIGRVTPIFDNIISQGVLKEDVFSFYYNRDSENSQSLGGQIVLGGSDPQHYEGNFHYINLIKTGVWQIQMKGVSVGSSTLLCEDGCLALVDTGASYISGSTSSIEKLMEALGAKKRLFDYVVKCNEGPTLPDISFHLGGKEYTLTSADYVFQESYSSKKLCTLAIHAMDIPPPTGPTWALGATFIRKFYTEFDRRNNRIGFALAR
Procedure: (§1) Kinetics of ACE and renin inhibition was determined using a previously described method. For ACE inhibition, the substrate (FAPGG) concentrations were 0.0625, 0.125, 0.25 and 0.5 mM, while renin substrate concentrations were 1.25, 2.5, 5 and 10 µM. Peptide concentrations used during the assays are shown in Tables 1 and 2 for the kinetics of ACE and renin inhibition, respectively. The modes of ACE and renin inhibition were determined from Lineweaver-Burk plots while inhibition parameters (Vmax and Km) were calculated, respectively, as the Y and X-axis intercepts of the primary plot. Ki was calculated as the X-axis intercept of the line obtained from a secondary plot of Lineweaver-Burk line slopes versus peptide concentrations.

renin [2] = system: renin; parameters: method as in earlier work; details: previously determined ref 8; read-out: IC50 for renin inhibition; cited from earlier work
renin [3] = target: T1, renin; test: Intrinsic fluorescence emission of renin with peptides; assay type: binding
Procedure: Fluorescence emission spectra were obtained using the method of Li et al.. Briefly, 25 µL of 1 U/mL ACE (prepared in 50 mM Tris–HCl buffer, pH 7.5, containing 300 mM NaCl) or 25 µL of 250 µg/mL renin (prepared in 50 mM Tris–HCl buffer, pH 8.0, containing 100 mM NaCl) was mixed with 50 µL of peptide solution and 25 µL of the appropriate buffer to yield a 100 µL assay solution. Emission spectra were recorded at 25°C using a micro quartz cell (100 µL capacity) on a JASCO FP-6300 spectrofluorimeter (JASCO, Tokyo, Japan). ACE or renin assay solutions were excited at 280 nm and emission recorded from 290 to 450 nm. Emission spectrum of the respective buffer, peptides and enzymes was subtracted from the emission spectrum of each assay solution.

renin [4] = target: T1, renin; test: Far-UV circular dichroism of renin-peptide complex; details: for Unordered / α-helix / β-sheet / β-turn: renin
Procedure: (§2) Far-UV CD spectra were obtained using a JASCO J-815 spectropolarimeter (JASCO, Tokyo, Japan) under constant nitrogen flush according to the method of Omoni and Aluko [11]. A 0.5 mm pathlength quartz cell was used for the far UV (190–240 nm) measurements and each final spectrum was the average of three consecutive scans with simultaneous subtraction of the respective buffer, peptides and enzymes spectrum. For determining the peptide-enzyme interaction spectra, 150 µL of 1 U/mL ACE (prepared in 50 mM Tris–HCl buffer, pH 7.5, containing 300 mM NaCl) or 150 µL of 250 µg/mL renin (prepared in 50 mM Tris–HCl buffer, pH 8.0, containing 100 mM NaCl) was mixed with 50 µL of a peptide solution. The far-UV CD spectra in the 200–240 nm range were analyzed for secondary structure fractions using the online DICHROWEB procedure.

ACE [5] = details: cited from earlier work
Rabbit lung ACE = target: T2, Rabbit lung ACE (Oryctolagus cuniculus, UniProt P12822); test: Kinetics of ACE inhibition (Lineweaver-Burk, FAPGG substrate); assay type: biochemical
T2 construct: Rabbit lung ACE (A6778, 98% purity); purchased Sigma-Aldrich A6778; host or cells: rabbit lung (tissue-derived)
T2 sequence (P12822 34-1310): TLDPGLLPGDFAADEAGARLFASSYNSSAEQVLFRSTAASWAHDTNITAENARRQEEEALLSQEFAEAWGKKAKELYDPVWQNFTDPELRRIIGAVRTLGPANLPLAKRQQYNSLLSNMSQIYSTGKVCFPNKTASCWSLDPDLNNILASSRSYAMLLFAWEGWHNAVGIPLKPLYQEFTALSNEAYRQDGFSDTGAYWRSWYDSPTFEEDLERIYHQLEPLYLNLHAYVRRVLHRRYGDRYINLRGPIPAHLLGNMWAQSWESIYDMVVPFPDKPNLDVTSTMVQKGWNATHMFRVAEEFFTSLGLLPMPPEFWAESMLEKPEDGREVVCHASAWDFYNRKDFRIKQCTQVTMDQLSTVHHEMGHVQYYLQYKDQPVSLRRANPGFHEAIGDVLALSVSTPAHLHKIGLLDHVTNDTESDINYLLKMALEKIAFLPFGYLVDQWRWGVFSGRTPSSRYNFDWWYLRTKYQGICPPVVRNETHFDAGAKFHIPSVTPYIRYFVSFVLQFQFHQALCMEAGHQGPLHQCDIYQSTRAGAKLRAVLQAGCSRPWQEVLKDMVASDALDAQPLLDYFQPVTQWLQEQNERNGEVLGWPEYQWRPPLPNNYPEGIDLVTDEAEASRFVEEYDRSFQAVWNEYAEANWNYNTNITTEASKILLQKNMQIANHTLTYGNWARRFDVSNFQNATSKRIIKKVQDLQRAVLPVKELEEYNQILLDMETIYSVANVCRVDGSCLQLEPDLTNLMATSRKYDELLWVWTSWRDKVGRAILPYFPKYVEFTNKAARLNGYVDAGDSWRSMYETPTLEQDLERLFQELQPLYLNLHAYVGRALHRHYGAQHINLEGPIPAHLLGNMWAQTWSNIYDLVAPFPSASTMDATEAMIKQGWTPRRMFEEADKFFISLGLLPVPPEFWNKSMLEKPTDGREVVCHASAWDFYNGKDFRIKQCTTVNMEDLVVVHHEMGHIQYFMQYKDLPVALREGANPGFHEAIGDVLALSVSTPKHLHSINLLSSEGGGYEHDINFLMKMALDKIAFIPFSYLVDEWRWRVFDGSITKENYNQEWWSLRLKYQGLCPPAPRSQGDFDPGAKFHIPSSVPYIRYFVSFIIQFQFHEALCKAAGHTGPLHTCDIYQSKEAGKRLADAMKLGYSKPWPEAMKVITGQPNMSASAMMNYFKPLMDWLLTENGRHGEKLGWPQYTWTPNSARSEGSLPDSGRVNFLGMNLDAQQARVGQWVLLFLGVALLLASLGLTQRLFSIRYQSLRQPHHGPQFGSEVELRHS
Procedure: as §1

ACE [6] = system: ACE; parameters: method as in earlier work; details: previously determined ref 8; read-out: IC50 for ACE inhibition; cited from earlier work
ACE [7] = target: T3, ACE (Oryctolagus cuniculus, UniProt P12822); test: Far-UV circular dichroism of ACE-peptide complex; parameters: species or system Rabbit
T3 construct: Rabbit lung ACE (A6778, 98% purity); purchased Sigma-Aldrich A6778; host or cells: rabbit lung (tissue-derived)
T3 sequence (P12822 34-1310): T2 sequence (P12822 34-1310)
Procedure: as §2

For `CC(C)C[C@H](N)C(=O)N[C@@H](Cc1ccc(O)cc1)C(=O)O` [LY, Leu-Tyr], which “Mode of renin inhibition” value (renin [1]) is on record?
The value was “uncompetitive”.

What about the “K′m” value (renin [1]; LY 0.8493 mM) of the same compound?
Its value is 2.45 µM.

And the “V′max” value (renin [1]; LY 0.8493 mM)?
Its value is 17.74 FI/min.

And the “K′m” value (renin [1]; LY 1.6986 mM)?
Its value is 3.11 µM.

What about the “V′max” value (renin [1]; LY 1.6986 mM) of the same compound?
Its value is 17.63 FI/min.

And the Ki (renin [1])?
Its Ki is 2.24 mM.

And the IC50 (renin [2])?
The IC50 was 1.87 mM.

And the “λmax of renin emission” value (renin [3]; 0.170 mM peptide)?
The value was 326 nm.

And the Unordered (renin [4]; peptide 12.5 µg/mL)?
Its Unordered is 30.37±0.23^F %.

What about the α-helix (renin [4]; peptide 12.5 µg/mL) of the same compound?
The α-helix was 4.63±0.12^B %.

And the β-sheet (renin [4]; peptide 12.5 µg/mL)?
Its β-sheet is 44.41±0.61^B %.

What about the β-turn (renin [4]; peptide 12.5 µg/mL) of the same compound?
Its β-turn is 19.41±0.17^B %.

What about the Unordered (renin [4]; peptide 25 µg/mL) of the same compound?
Its Unordered is 74.87% and 74.87±0.31^B %.

What about the α-helix (renin [4]; peptide 25 µg/mL) of the same compound?
The α-helix was 2.63±0.32^C %.

What about the β-sheet (renin [4]; peptide 25 µg/mL) of the same compound?
The β-sheet was 4.33±0.32^E %.

And the β-turn (renin [4]; peptide 25 µg/mL)?
Its β-turn is 19.73±1.45^B %.

With AWLHPGAPKVF as the compound, how does the “Mode of ACE inhibition” value (ACE [5]) read?
The value was “competitive”.

With RMLGQTP as the compound, how does the “Mode of ACE inhibition” value (ACE [5]) read?
Its value is “mixed-type”.

For FNVPLYE, which “Mode of ACE inhibition” value (ACE [5]) is on record?
Its value is “mixed-type”.

Which results are given for `CC(C)C[C@H](NC(=O)[C@H](C)NC(=O)[C@@H](N)CCCNC(=N)N)C(=O)N1CCC[C@H]1C(=O)O` [RALP, Arg-Ala-Leu-Pro] (H-RALP-OH)?
Ki (renin [1]): 0.285 mM; Ki (Rabbit lung ACE; ACE, secondary plot of Lineweaver-Burk slopes, read-out: Ki (enzyme-inhibitor dissociation constant)): 104 µM

With `C[C@@H](O)[C@H](N)C(=O)N[C@@H](Cc1ccccc1)C(=O)O` [TF, Thr-Phe] (H-Thr-Phe-OH; N-terminus and C-terminus assumed) as the compound, how does the IC50 (ACE [6]) read?
Its IC50 is 810 µM.

What about the “Mode of renin inhibition” value (renin [1]) of the same compound?
Its value is “non-competitive”.

What about the “K′m” value (renin [1]; TF 0.9387 mM) of the same compound?
The value was 4.78 µM.

And the “V′max” value (renin [1]; TF 0.9387 mM)?
The value was 25.89 FI/min.

What about the “K′m” value (renin [1]; TF 3.7551 mM) of the same compound?
Its value is 4.41 µM.

What about the “V′max” value (renin [1]; TF 3.7551 mM) of the same compound?
The value was 17.20 FI/min.

What about the IC50 (renin [2]) of the same compound?
The IC50 was 3.06 mM.

What about the “λmax of renin emission” value (renin [3]; 0.047 mM peptide, 328.5 nm without peptide) of the same compound?
Its value is 326 nm.

What about the “λmax of renin emission” value (renin [3]; 0.094 mM peptide, 328.5 nm without peptide) of the same compound?
The value was 327 nm.

And the “Decrease in FI” value (renin [3]; renin paragraph (printed ACE FI), LY at 0.170 mM, concentration for TF, RALP not given)?
Its value is 47%.

What about the “Factor of increase of unordered fraction in renin” value (renin [4]; 0.094 mM peptide) of the same compound?
Its value is 2.25.

And the “Factor of reduction of β-sheet fraction in renin” value (renin [4]; 0.094 mM peptide)?
The value was roughly 6.

What about the Unordered (renin [4]; peptide 12.5 µg/mL) of the same compound?
Its Unordered is 28.91±0.25^G %.

What about the α-helix (renin [4]; peptide 12.5 µg/mL) of the same compound?
The α-helix was 2.91±0.26^C %.

What about the β-sheet (renin [4]; peptide 12.5 µg/mL) of the same compound?
The β-sheet was 46.97±0.31^A %.

And the β-turn (renin [4]; peptide 12.5 µg/mL)?
The β-turn was 21.37±0.06^A %.

And the Unordered (renin [4]; peptide 25 µg/mL)?
Its Unordered is 72.25±0.21^C %.

And the α-helix (renin [4]; peptide 25 µg/mL)?
Its α-helix is 0.95±0.07^D %.

What about the β-sheet (renin [4]; peptide 25 µg/mL) of the same compound?
The β-sheet was 7.91±0.85^D %.

And the β-turn (renin [4]; peptide 25 µg/mL)?
Its β-turn is 18.95±0.21^B %.

What about the “K′m” value (Rabbit lung ACE; ACE, TF 0.1887 mM) of the same compound?
The value was 1.0088 mM.

What about the “V′max” value (Rabbit lung ACE; ACE, TF 0.1887 mM) of the same compound?
The value was 0.0185 ΔA/min.

What about the “K′m” value (Rabbit lung ACE; ACE, TF 0.7510 mM) of the same compound?
The value was 0.5546 mM.

And the “V′max” value (Rabbit lung ACE; ACE, TF 0.7510 mM)?
The value was 0.0097 ΔA/min.

What about the “Mode of ACE inhibition” value (Rabbit lung ACE; Lineweaver-Burk plots) of the same compound?
The value was “mixed-type”.

And the Unordered (ACE [7]; peptide 12.5 µg/mL)?
The Unordered was 22.31±2.25^E %.

What about the α-helix (ACE [7]; peptide 12.5 µg/mL) of the same compound?
Its α-helix is 16.55±0.49^B %.

What about the β-sheet (ACE [7]; peptide 12.5 µg/mL) of the same compound?
The β-sheet was 41.67±2.17% and 41.67±2.17^A %.

And the β-turn (ACE [7]; peptide 12.5 µg/mL)?
The β-turn was 16.97±0.31^C %.

What about the Unordered (ACE [7]; peptide 25 µg/mL) of the same compound?
Its Unordered is 39.9±1.56^B %.

What about the α-helix (ACE [7]; peptide 25 µg/mL) of the same compound?
The α-helix was 13.43±0.72^C %.

And the β-sheet (ACE [7]; peptide 25 µg/mL)?
The β-sheet was 29.17±0.86% and 29.17±0.86^B %.

What about the β-turn (ACE [7]; peptide 25 µg/mL) of the same compound?
The β-turn was 17.33±0.64^C %.

For FEDYVPLSCF, which “Mode of ACE inhibition” value (ACE [5]) is on record?
Its value is “mixed-type”.
